Source: US8497092B2, “Method of bioassaying yokukansan” (Tsumura & Co., priority 2008, dated 2013)

Assays:
[1] = test system: PC12 cells; assay: Induction of cell death by glutamate in PC12 cells (MTT assay); assay type: cell-based, rat; details: regardless of whether NGF stimulation is present
Description: By using PC12 cells obtained in Example 1, a culture condition to efficiently induce cell death by glutamate was studied as follows.
From the above studies, the best culture condition for inducing cell death by glutamate was determined as follows: the cells are seeded on a plate coated with collagen, and a medium supplemented with dialyzed serum and without phenol red is used as an induction medium. The induction medium contains an antibiotic-containing medium obtained by adding 5 mL of a penicillin-streptomycin solution to 500 mL of RPMI 1640 medium (GIBCO 11835-030), 5% dialyzed fetal bovine serum (GIBCO 26400-044), and 10% dialyzed horse serum (Biowest S090D). […]
After 24 hours from the above induction of cell death, 0.5% MTT solution (Dojindo 345-01821) was added in an amount of 20 μL per 100 μL of the medium in the above 96-well plate and cultured for 5 hours. […] The crystals of formazan were dissolved using a pipette, and after leaving the solution overnight, the absorbance at a wavelength of 570 nm was measured with a reference wavelength of 690 nm using a spectrometer (Multiskan MCC/340, manufactured by Titertek, Inc.). Thereafter, the cell viability was calculated from the following calculation formula on the basis of the obtained absorbance. […]

[2] = test system: PC12 cells; details: Non-Patent Documents 1 to 3; cited from earlier work

Row | Molecule | cell death caused by glutamate [1] | inhibition of cell death caused by glutamate [2]
1 | N[C@@H](CCC(=O)O)C(=O)O [glutamate] | concentration-dependent manner | –
2 | (−)-epigallocatechin gallate | – | cell death is inhibited
